Data from US12616674B2, “Anti-fibrotic NEU3 inhibitor compounds and methods of use” (The Texas A&M University System, priority 2019, dated 2026).
Read-outs that look alike come from different tables or passages of the source.

Experiments:
[1] = test system: NEU3-induced IL-6 production by human PBMC; experiment: NEU3-induced extracellular IL-6 accumulation by human PBMC (IL-6 concentration assay); assay type: cell-based; settings: NEU3, serum-free medium, 48 hours
Description: Human peripheral blood was collected from healthy volunteers who gave written consent and with specific approval from the Texas A&M University human subjects review board. Peripheral blood mononuclear cells (PBMC) were isolated from the blood using Ficoll-Paque density gradient centrifugation (95021-205, GE Healthcare, Cincinnati, OH) following the manufacture's protocol. PBMC were cultured at […] in 96-well flat bottom tissue culture plates (type 62406-081; […] Louis, MO)) in a final volume of 200 μl per well. […] The sialidases were diluted in 100 μl of the same medium the cells were in, and added to 100 μl of cells at 1×10^5 cells/ml to make the total volume in a well 200 μl with 1×10^4 cells/well. The cells were then incubated at 37° C. in a humidified incubator with 5% CO2. The culture supernatants were collected after two or five days and assayed using an IL-6 ELISA kit (430501, Biolegend, San Diego, CA) following the manufacturer's protocol, reading absorbance with a SynergyMX plate reader (BioTek, Winooski, VT). Statistics were analyzed using Prism software (Graphpad, La Jolla, CA). At least three different donors were used for each assay. […] IL-6 in the culture supernatant was then assayed as described above. At least three different donors were used for each assay.

[2] = molecular target: T1, recombinant human sialidase NEU3 (Homo sapiens, UniProt Q9UQ49); experiment: NEU3-catalyzed L-TGF-β1 activation (TGF-β1 release/concentration assay, active TGF-β1 ELISA); assay type: biochemical; settings: recombinant human NEU3, L-TGF-β1, PBS pH 6.9, 2 hours 37° C.
T1 construct: purchased Origene TP316537
T1 sequence (Q9UQ49 1-428): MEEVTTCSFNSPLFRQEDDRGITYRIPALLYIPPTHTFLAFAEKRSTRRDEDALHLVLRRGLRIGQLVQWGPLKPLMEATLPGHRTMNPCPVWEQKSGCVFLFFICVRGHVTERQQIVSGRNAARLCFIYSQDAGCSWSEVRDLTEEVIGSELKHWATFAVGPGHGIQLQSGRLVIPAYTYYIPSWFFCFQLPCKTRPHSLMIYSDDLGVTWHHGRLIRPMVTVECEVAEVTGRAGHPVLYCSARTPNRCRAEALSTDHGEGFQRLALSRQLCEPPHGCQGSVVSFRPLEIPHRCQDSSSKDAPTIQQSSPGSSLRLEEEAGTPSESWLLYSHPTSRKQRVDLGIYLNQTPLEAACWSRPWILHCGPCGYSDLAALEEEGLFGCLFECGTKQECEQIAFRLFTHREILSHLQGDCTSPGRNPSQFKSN
Description: To determine if NEU3 can cause latent transforming growth factor-β1 (L-TGF-β1) to release active TGF-β1, 200 ng/ml recombinant human L-TGF-β1 (299-LT/CF, R&D Systems) was incubated with varying concentrations of recombinant human NEU3 (TP316537, Origene) in a total volume of 100 μl of PBS pH 6.9 in a 96-well microplate (651261, Greiner Bio-one, Monroe, NC). The microplates were covered with aluminum foil and incubated at 37° C. for 2 hours. Following incubation, the reaction mixtures were assayed using a TGF-β1 ELISA kit (DY240, R&D Systems) following the manufacturer's protocol with the exception that the reaction mixtures were not processed for acid treatment, so as to measure only active TGF-β1 and not total TGF-β1. The absorbance was read with a SynergyMX plate reader (BioTek, Winooski, VT).
To determine the ability of compounds 1-31 to inhibit human recombinant NEU3 in-vitro, compounds were dissolved in 5 ml water to 20 mM in 15 ml tubes (89039-664, VWR, Radnor, PA), with the exception that 4-hydroxypyridine-2-carboxylic acid, nicotinic acid, and 4-aminopicolinic acid were dissolved in 50 μl DMSO to 2 M, and this was then added to 4.95 ml of water to make a 20 mM stock, and O-(tetrahydro-2H-pyran-2yl) hydroxylamine and salicylic acid were dissolved in 50 μl methanol to 2 M, and this was then added to 4.95 ml of water to make a 20 mM stock. All stocks were stored at 4° C. and used within 2 weeks of preparation. A 10-fold dilution series of the compounds starting at 2 mM were made in PBS pH 6.9 in 1.7 ml clear microtubes (22-281, Genesee Scientific). 100 μl of diluted compound was added to the well of a 96 well plate and then 50 μl of 400 ng/ml recombinant human sialidase NEU3 (TP316537, Origene) in PBS pH 6.9 was added to each well (50 μl PBS pH 6.9 for the control), and the plate was incubated for 30 minutes at 37° C. 50 μl of 800 ng/ml L-TGF-β1 (299-LT/CF, R&D Systems) in PBS pH 6.9 was then added to the well. The plate was covered with aluminum foil and incubated for 2 hours at 37° C., and released active TGF-β1 was assayed as described above.

[3] = read-out: IC50, inhibits human NEU3 in the TGF-β1 concentration assay
[4] = read-out: IC50, inhibits human NEU3 in the TGF-β1 concentration (release) assay

Structure (SMILES): O=C(O)c1cc(O)ccn1 [Compound 2, 4-hydroxypyridine-2-carboxylic acid]
- IC50 [1]: > 300000 nM

Structure (SMILES): CC(=O)Nc1ccc(C(=O)O)nc1 [Compound 3, 5-acetamidopyridine-2-carboxylic acid]
- IC50 [2, 3]: 11 nM
- IC50 [1]: 6200 nM

Structure (SMILES): O=C(O)c1ccccn1 [Compound 4, picolinic acid]
- IC50 [2, 3]: < 0.01 nM
- IC50 [1]: > 100000 nM

Structure (SMILES): Nc1ccnc(C(=O)O)c1 [Compound 7, 4-amino picolinic acid]
- IC50 [2, 3]: 4 nM
- IC50 [1]: > 100000 nM

Structure (SMILES): O=C(O)c1ccc([N+](=O)[O-])cn1 [Compound 8, 5-nitro picolinic acid]
- IC50 [2, 3]: 43 nM
- IC50 [1]: 79 nM

Structure (SMILES): COc1ccnc(C(=O)O)c1 [Compound 9, 4-methoxy picolinic acid]
- IC50 [2, 3]: 3.2 nM
- IC50 [1]: > 100000 nM

Structure (SMILES): NC(=O)c1ccccn1 [Compound 10, picolinamide]
- IC50 [2, 3]: 22 nM
- IC50 [1]: > 100000 nM

Structure (SMILES): O=C(O)C1=CCCCN1 [Compound 12, sodium 1,4,5,6-tetrahydropyridine-2-carboxylate]
- IC50 [2, 4]: 120000 nM

Structure (SMILES): O=C(O)[C@@H]1CCCCN1 [Compound 13, L-pipecolinic acid]
- IC50 [2, 3]: 0.49 nM
- IC50 [1]: 7900 nM

Structure (SMILES): O=C(O)c1cccnc1 [Compound 14, nicotinic acid]
- IC50 [2, 3]: 0.011 nM
- IC50 [1]: 1500 nM

Structure (SMILES): O=C(O)c1ccccc1O [Compound 15, salicylic acid]
- IC50 [2, 4]: 1800 nM

Structure (SMILES): NOC1CCCCO1 (stereo not shown) [Compound 16, O-(tetrahydro-2H-pyran-2-yl)-hydroxylamine]
- IC50 [2, 4]: 2600 nM

Structure (SMILES): O=C(O)c1cccc(CO)n1 [Compound 17, 6-(hydroxymethyl) picolinic acid]
- IC50 [2, 3]: 0.05 nM
- IC50 [1]: 38 nM

Structure (SMILES): Nc1ccc(C(=O)O)nc1 [Compound 18, 5-aminopyridine-2-carboxylic acid]
- IC50 [2, 3]: 40 nM
- IC50 [1]: 140 nM

Structure (SMILES): O=[N+]([O-])c1ccccn1 [Compound 19, 2-Nitropyridine]
- IC50 [2, 3]: 40 nM
- IC50 [1]: 20 nM

Structure (SMILES): CN1CCCCC1C(=O)O (stereo not shown) [Compound 20, 1-methyl-2-piperidine carboxylic acid]
- IC50 [2, 4]: 500 nM
- IC50 [1]: 30 nM

Structure (SMILES): O=C(O)c1cc(C(F)(F)F)ccn1 [Compound 21, 4-(trifluoromethyl) picolinic acid]
- IC50 [1]: 0.08 nM

Structure (SMILES): Cc1ccnc(C(=O)O)c1 [Compound 22, 4-methylpicolinic acid]
- IC50 [2, 4]: 130 nM
- IC50 [1]: 4700 nM

Structure (SMILES): Nc1ccncc1C(=O)O [Compound 23, 4-aminonicotinic acid]
- IC50 [2, 3]: 5 nM
- IC50 [1]: 10000 nM

Structure (SMILES): O=C(O)c1cc(=O)cc[nH]1 [Compound 24, 4-oxo-1,4-dihydropyridine-2-carboxylic acid]
- IC50 [1]: 8500 nM

Structure (SMILES): NC1CCNC(C(=O)O)C1 (stereo not shown) [Compound 25, 2-piperidinecarboxylic acid, 4-amino]
- IC50 [2, 3]: 2 nM
- IC50 [1]: 0.13 nM

Structure (SMILES): Cc1cccc(C(=O)O)n1 [Compound 27, 6-methyl-2-pyridinecarboxylic acid]
- IC50 [2, 3]: < 0.01 nM
- IC50 [1]: 4.1 nM

Structure (SMILES): CCOC(=O)C1=C[C@@H](OC(CC)CC)[C@H](NC(C)=O)[C@@H](N)C1 [Compound 28, oseltamivir, reference compound]
- IC50 [2, 3]: 570 nM
- IC50 [1]: 47000 nM

Structure (SMILES): O=C(O)[C@H]1CCCN1 [Compound 29, D-proline]
- IC50 [2, 3]: 63 nM
- IC50 [1]: 4200 nM

Structure (SMILES): O=C(O)c1ccc[nH]1 [Compound 30, pyrrole-2-carboxylic acid]
- IC50 [2, 4]: 164000 nM
- IC50 [1]: 9500 nM

Structure (SMILES): O=C(O)C1CCCCCN1 (stereo not shown) [Compound 31, azepane-2-carboxylic acid]
- IC50 [2, 3]: 2.4 nM
- IC50 [1]: 35 nM
